{"source": "patent US20120277265A1", "about": "“NOVEL POLYQUINOLINE DERIVATIVES AND THE THERAPEUTIC USE THEREOF” (CENTRE NATIONAL DE LA RECHERCHE SCIENTIFIQUE (C.N.R.S.), priority 2005, published 2012)", "key": {"Aβ1-42": {"biological_target": "T1, Aβ1-42 (Homo sapiens, UniProt P05067)", "T1 construct": "The β-amyloid peptide Aβ1-42 (Aβ1-42) was synthesised, purified (to a purity greater than 95%); made in house; host or cells: chemical peptide synthesis (no expression host)", "T1 sequence (P05067 672-713)": "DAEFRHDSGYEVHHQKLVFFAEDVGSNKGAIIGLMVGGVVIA", "assay": "Inhibition of the precipitation of Aβ1-42 by the addition of ligand (Micro BCA assay of soluble/aggregated peptide)", "format": "biochemical", "conditions": "Aβ1-42 5 μM, pH 7.4; for CuCl2 % soluble Aβ: 20 μM CuCl2, 1 h 37° C. then 1 h with 200 μM ligand; for FeCl3 % soluble Aβ: 20 μM FeCl3, 1 h 37° C. then 1 h with 200 μM ligand; for ZnCl2 % soluble Aβ: 20 μM ZnCl2, 1 h 37° C. then 1 h with 200 μM ligand; for without metal % soluble Aβ: no metal salt, 1 h 37° C. then 1 h with 200 μM ligand", "experimental": "After a further hour of incubation, the reaction mixture is centrifuged.\nBefore use, the water [of Milli-Q Millipore quality] and all buffer solutions were treated on Chelex-100 resin (Biorad) (5 mg/ml) and filtered through 0.2 μm filters (Whatman) to remove potential traces of metal ions or particles.\nWorking solutions of the peptide were prepared by solubilising 1 mg of lyophilised peptide in 500 μl of water and 500 μl of an aqueous NaOH solution pH=12.0, while stirring in a Thermomixer Comfort (Eppendorf). The peptide preparations are subsequently centrifuged for 10 minutes at 9,000 rpm and the supernatant is used as an “Aβ stock” solution. The concentration of peptide in the “Aβ stock” is determined immediately by colorimetric assay using a Micro BCA Protein Assays kit (Pierce) from standard ranges produced using known amounts of bovine serum albumin (BSA) then the Aβ1-42 peptide solution is aliquoted and frozen rapidly in liquid nitrogen prior to being stored at −20° C. until being used.\nSalts are generated by adding one hydrochloric acid equivalent per nitrogen group equivalent of the ligand dissolved in DMSO. After evaporation of the solvent, these salts are dissolved at the desired concentration with DMSO and kept at −20° C. until they are used.\nThe protocol was established from works by: C. S. Atwood et al., J. Neurochem. […] The final concentrations are given. 500 μl of Aβ1-42 (5 μM is set to aggregate in 20 mM Tris-HCl buffer containing 150 mM NaCl (pH=7.4) for 1 hour at 37° C. while stirring at 1,400 rpm in the absence or presence of metal ions: CuCl2, ZnCl2 or FeCl3 (20 μM). Then 50 pi of ligand to be tested (200 μM) dissolved in DMSO are added and the samples are incubated for 1 further hour at 37° C. while stirring at 1,400 rpm. The samples without ligand also receive 50 μl of DMSO. The samples (final volume=550 μ) are subsequently centrifuged for 20 min at 9,000 rpm, and 500 μl of supernatant are removed. The tube containing the precipitation pellet then receives 450 μl of assay buffer/DMSO mixture (91/9, v/v). […] Quantification is carried out on the basis of standard BSA ranges. The amounts of Aβ1-42 actually contained in the pellet and the supernatant are obtained after a correction due to the presence of a residual portion of supernatant in the pellet-containing fraction.\nFor the control experiments with derivatives comprising a single quinoline residue, […] of ligand were added because complexes of type L2Cu are conventionally used in these cases."}, "[1]": {"biological_target": "T2, copper complexes of Aβ1-42 peptide (Homo sapiens, UniProt P05067)", "T2 construct": "The β-amyloid peptide Aβ1-42 (Aβ1-42) was synthesised, purified (to a purity greater than 95%); made in house; host or cells: chemical peptide synthesis (no expression host)", "T2 sequence (P05067 672-713 limits assumed, one chain of several)": "as the sequence (P05067 672-713) above", "assay": "Hydrogen peroxide produced by Aβ1-42 in the presence of CuCl2, ascorbate, air and ligand (Amplex Red H2O2/HRP)", "format": "biochemical", "conditions": "ligand 1 eq/Cu(II) (0.4 μM); CuCl2 0.4 μM, ascorbate 10 μM, air", "experimental": "(§1) FIG. 11: Variation in H2O2 production by copper complexes of Aβ1-42 peptide as a function of the Cu(II)/Aβ stoichiometry. Experiments are carried out for 5 minutes in a sodium phosphate buffer (pH=7.4) in the presence 0.4 μM CuCl2, 10 μM ascorbate and air with or without 0.4 μM of 3 or 7. The H2O2 released is quantified by means of an Amplex-Red H2O2/HRP Assay kit.\n(§2) The final concentrations are given. The reactions were carried out in the dark in mM sodium phosphate buffer (pH=7.4). Aβ1-42 (0.2 μM) and CuCl2 (0.4 μM) were pre-incubated for 1 hour at 37° C. while stirring at 1,400 rpm in 375 μl of buffer. Then 2 μl of a solution of ligand to be investigated (0.2; 0.4 or 0.8 μM) in DMSO were added. After incubation for a further hour, 2 μl of an aqueous sodium ascorbate solution (10 μM) were added and incubation was continued for 5 min while stirring. The amount of H2O2 produced is then quantified using an Amplex Red H2O2/HRP Assay Kit (Molecular Probes) while adding a volume of assay reagent to the samples, then incubating them for 1 hour at 37° C. while stirring at 500 rpm. […] Quantification is carried out on the basis of standard curves obtained with known amounts of H2O2.\n(§3) The figures in the tables correspond to the amount of H2O2 (expressed in nanomoles) added using an Amplex Red H2O2/HRP Assay kit."}, "[2]": {"assay": "Determination of log D7.4 (1-octanol / Tris-HCl buffer)", "format": "physicochemical", "conditions": "1-octanol / 20 mM Tris-HCl buffer containing 150 mM NaCl (pH = 7.4) (1/1, v/v)", "experimental": "The ligand (2.0 mg) is dissolved in 2 ml of 1-octanol then 2 ml of 20 mM Tris-HCl buffer, pH=7.4 containing 150 mM NaCl are added. After mixing in a vortex for 3 min at ambient temperature, followed by centrifugation for 5 min at 9,000 rpm, the concentration of the ligand in each phase is determined by UV-visible spectrophotometry. The 1-octanol fractions are thus redivided until reproducible values of coefficient of division of obtained. This coefficient is expressed as the decimal logarithm of [(the concentration of ligand contained in the 1-octanol phase)/(the concentration of ligand contained in the buffered aqueous phase)]=log D7.4. Measurements were taken three times."}, "[3]": {"assay": "Hydrogen peroxide produced by Aβ1-42 in the presence of CuCl2, ascorbate, air and ligand (Amplex Red H2O2/HRP)", "format": "biochemical", "conditions": "ligand 1 eq/Cu(II) (0.4 μM); CuCl2 0.4 μM, ascorbate 10 μM, air", "experimental": "as §1, §2, §3"}}, "data": [{"smiles": "COc1ccc2ccc(Cc3ccc4ccc(OC)c(O)c4n3)nc2c1O.Cl.Cl", "note": "[Compound 16, 2,2′-(methanediyl)-bis(7-methyloxy-8-hydroxy-2-quinolinium) dichloride]", "values": [{"measurement": "CuCl2 % soluble Aβ", "setting": "Aβ1-42", "result": "48 ± 3", "unit": "%"}, {"measurement": "FeCl3 % soluble Aβ", "setting": "Aβ1-42", "result": "44 ± 6", "unit": "%"}, {"measurement": "ZnCl2 % soluble Aβ", "setting": "Aβ1-42", "result": 50, "unit": "%"}, {"measurement": "without metal % soluble Aβ", "setting": "Aβ1-42", "result": 53, "unit": "%"}, {"measurement": "amount of H2O2, 0.2 μM Aβ1-42 Cu/Aβ = 2", "setting": "[1]", "result": 0.70, "unit": "nmol"}]}, {"smiles": "Nc1cccc2cccnc12", "note": "[8-aminoquinoline, reference compound]", "values": [{"measurement": "CuCl2 % soluble Aβ", "setting": "Aβ1-42", "result": 40, "unit": "%"}, {"measurement": "FeCl3 % soluble Aβ", "setting": "Aβ1-42", "result": 58, "unit": "%"}, {"measurement": "ZnCl2 % soluble Aβ", "setting": "Aβ1-42", "result": 67, "unit": "%"}, {"measurement": "without metal % soluble Aβ", "setting": "Aβ1-42", "result": "66 ± 3", "unit": "%"}, {"measurement": "logD at 3 min", "setting": "[2]", "result": "1.9 ± 0.1"}]}, {"smiles": "Oc1ccc(Cl)c2ccc(Cc3ccc4c(Cl)ccc(O)c4n3)nc12", "note": "[Compound 2, 2,2′-methanediyl-bis(5-chloro-8-hydroxyquinoline)]", "values": [{"measurement": "CuCl2 % soluble Aβ", "setting": "Aβ1-42", "result": "45 ± 5", "unit": "%"}, {"measurement": "FeCl3 % soluble Aβ", "setting": "Aβ1-42", "result": 58, "unit": "%"}, {"measurement": "ZnCl2 % soluble Aβ", "setting": "Aβ1-42", "result": 57, "unit": "%"}, {"measurement": "without metal % soluble Aβ", "setting": "Aβ1-42", "result": 66, "unit": "%"}, {"measurement": "logD at 3 min", "setting": "[2]", "result": "3.5 ± 0.1"}, {"measurement": "amount of H2O2, 0.2 μM Aβ1-42 Cu/Aβ = 2", "setting": "[1]", "result": "0.80 ± 0.23", "unit": "nmol"}, {"measurement": "amount of H2O2, 0.5 μM Aβ1-42 Cu/Aβ = 0.75", "setting": "[1]", "result": 0.61, "unit": "nmol"}, {"measurement": "amount of H2O2, without Aβ1-42", "setting": "[3]", "result": 0.56, "unit": "nmol"}]}, {"smiles": "c1cnc2c(Oc3cccc4cccnc34)cccc2c1", "note": "[Compound 15, 8,8′-Oxydiquinoline]", "values": [{"measurement": "CuCl2 % soluble Aβ", "setting": "Aβ1-42", "result": 35, "unit": "%"}, {"measurement": "FeCl3 % soluble Aβ", "setting": "Aβ1-42", "result": 42, "unit": "%"}, {"measurement": "ZnCl2 % soluble Aβ", "setting": "Aβ1-42", "result": 23, "unit": "%"}, {"measurement": "without metal % soluble Aβ", "setting": "Aβ1-42", "result": 72, "unit": "%"}, {"measurement": "logD at 3 min", "setting": "[2]", "result": "2 ± 0.1"}, {"measurement": "amount of H2O2, 0.2 μM Aβ1-42 Cu/Aβ = 2", "setting": "[1]", "result": 1.02, "unit": "nmol"}]}, {"smiles": "O=C(Nc1cccc2cccnc12)c1cccc2cccnc12", "note": "[Compound 24, N-8-quinolinyl-8-quinoline carboxamide]", "values": [{"measurement": "CuCl2 % soluble Aβ", "setting": "Aβ1-42", "result": 21, "unit": "%"}, {"measurement": "FeCl3 % soluble Aβ", "setting": "Aβ1-42", "result": 38, "unit": "%"}, {"measurement": "ZnCl2 % soluble Aβ", "setting": "Aβ1-42", "result": 21, "unit": "%"}, {"measurement": "without metal % soluble Aβ", "setting": "Aβ1-42", "result": 64, "unit": "%"}, {"measurement": "logD at 3 min", "setting": "[2]", "result": "2.6 ± 0.1"}, {"measurement": "amount of H2O2, 0.2 μM Aβ1-42 Cu/Aβ = 2", "setting": "[1]", "result": 0.62, "unit": "nmol"}, {"measurement": "amount of H2O2, 0.5 μM Aβ1-42 Cu/Aβ = 0.75", "setting": "[1]", "result": 0.47, "unit": "nmol"}, {"measurement": "amount of H2O2, without Aβ1-42", "setting": "[3]", "result": 0.49, "unit": "nmol"}]}]}
